Experimental data from PubChem BioAssay AID248 (DTP/NCI, 2004).
Toxic doses and inconclusive results are not listed.

Tested on: L1210 leukemia ip in BDF1 mice, survival T/C
Assay: NCI In Vivo Anticancer Drug Screen. Data for tumor model L1210 Leukemia (intraperitoneal) in B6D2F1 (BDF1) mice
Conditions: endpoint: mean survival time, higher = longer survival
Method in brief: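 Antitumor effect is assessed in tumor-bearing animals. Survival in the compound arm is compared with a vehicle-dosed control arm and expressed as their quotient.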

[1] = dose: 100.0 mg/kg/injection, schedule: Q01DX001 (ip), vehicle: saline
[2] = dose: 200.0 mg/kg/injection, schedule: Q01DX001 (ip), vehicle: saline
[3] = dose: 100.0 mg/kg/injection, schedule: Q01DX009 (ip), vehicle: saline
[4] = dose: 100.0 mg/kg/injection, schedule: Q01DX001 (ip), vehicle: carboxymethylcellulose (CMC)
[5] = dose: 200.0 mg/kg/injection, schedule: Q01DX001 (ip), vehicle: carboxymethylcellulose (CMC)
[6] = dose: 400.0 mg/kg/injection, schedule: Q01DX001 (ip), vehicle: carboxymethylcellulose (CMC)
[7] = dose: 100.0 mg/kg/injection, schedule: Q01DX009 (ip), vehicle: Klucel (hydroxypropylcellulose) (HPC)
[8] = dose: 200.0 mg/kg/injection, schedule: Q01DX009 (ip), vehicle: Klucel (hydroxypropylcellulose) (HPC)
[9] = dose: 400.0 mg/kg/injection, schedule: Q01DX009 (ip), vehicle: Klucel (hydroxypropylcellulose) (HPC)

In the case of CCC1CN2CCc3cc(OC)c(OC)cc3C2CC1CC1c2cc(OC)c(OC)cc2CCN1C(=O)C(Cc1c[nH]c2ccccc12)NC(=O)OC(C)(C)C (stereo not given), the T/C (dose: 4.0 mg/kg/injection, schedule: Q03HX008 (ip), vehicle: saline with Tween-80) is reported as 100 % of control, the T/C (dose: 4.0 mg/kg/injection, schedule: Q03HX016 (ip), vehicle: saline with Tween-80) is reported as 93 % of control and the T/C (dose: 4.0 mg/kg/injection, schedule: Q03HX024 (ip), vehicle: saline with Tween-80) is reported as 101 % of control. The T/C (dose: 8.0 mg/kg/injection, schedule: Q03HX008 (ip), vehicle: saline with Tween-80) was 105 % of control, the T/C (dose: 8.0 mg/kg/injection, schedule: Q03HX016 (ip), vehicle: saline with Tween-80) was 101 % of control and the T/C (dose: 8.0 mg/kg/injection, schedule: Q03HX024 (ip), vehicle: saline with Tween-80) was 98 % of control. For the same compound, the T/C (dose: 16.0 mg/kg/injection, schedule: Q01DX009 (oral), vehicle: saline with Tween-80) was 112 % of control, the T/C (dose: 16.0 mg/kg/injection, schedule: Q03HX008 (ip), vehicle: saline with Tween-80) was 101 % of control and the T/C (dose: 16.0 mg/kg/injection, schedule: Q03HX016 (ip), vehicle: saline with Tween-80) was 100 % of control. For the same compound, the T/C (dose: 16.0 mg/kg/injection, schedule: Q03HX024 (ip), vehicle: saline with Tween-80) was 97 % of control, the T/C (dose: 32.0 mg/kg/injection, schedule: Q01DX005 (ip), vehicle: saline with Tween-80) was 95 % of control and the T/C (dose: 32.0 mg/kg/injection, schedule: Q01DX009 (ip), vehicle: saline with Tween-80) was 104 % of control. The T/C (dose: 32.0 mg/kg/injection, schedule: Q01DX009 (oral), vehicle: saline with Tween-80) was 114 % of control, the T/C (dose: 32.0 mg/kg/injection, schedule: Q03HX008 (ip), vehicle: saline with Tween-80) was 92 % of control and the T/C (dose: 32.0 mg/kg/injection, schedule: Q03HX016 (ip), vehicle: saline with Tween-80) was 97 % of control. For the same compound, the T/C (dose: 32.0 mg/kg/injection, schedule: Q03HX024 (ip), vehicle: saline with Tween-80) was 98 % of control, the T/C (dose: 32.0 mg/kg/injection, schedule: Q04DX003 (ip), vehicle: saline with Tween-80) was 162 % of control and the T/C (dose: 37.5 mg/kg/injection, schedule: Q01DX009 (ip), vehicle: saline) was 95 % of control. For the same compound, the T/C (dose: 64.0 mg/kg/injection, schedule: Q01DX001 (ip), vehicle: saline with Tween-80) was 100 % of control, the T/C (dose: 64.0 mg/kg/injection, schedule: Q01DX005 (ip), vehicle: saline with Tween-80) was 102 % of control and the T/C (dose: 64.0 mg/kg/injection, schedule: Q01DX009 (ip), vehicle: saline with Tween-80) was 100 % of control. For the same compound, the T/C (dose: 64.0 mg/kg/injection, schedule: Q01DX009 (oral), vehicle: saline with Tween-80) was 114 % of control, the T/C (dose: 64.0 mg/kg/injection, schedule: Q04DX003 (ip), vehicle: saline with Tween-80) was 97 % of control and the T/C (dose: 64.0 mg/kg/injection, schedule: Q08DX002 (ip), vehicle: saline with Tween-80) was 98 % of control. For the same compound, the T/C (dose: 75.0 mg/kg/injection, schedule: Q01DX009 (ip), vehicle: saline) was 103 % of control, the T/C (dose: 89.0 mg/kg/injection, schedule: Q01DX001 (ip), vehicle: saline) was 115 % of control and the T/C (dose: 128.0 mg/kg/injection, schedule: Q01DX001 (ip), vehicle: saline with Tween-80) was 102 % of control. The T/C (dose: 128.0 mg/kg/injection, schedule: Q01DX005 (ip), vehicle: saline with Tween-80) was 101 % of control, the T/C (dose: 128.0 mg/kg/injection, schedule: Q01DX009 (ip), vehicle: saline with Tween-80) was 105 % of control and the T/C (dose: 128.0 mg/kg/injection, schedule: Q04DX003 (ip), vehicle: saline with Tween-80) was 105 % of control. The T/C (dose: 128.0 mg/kg/injection, schedule: Q08DX002 (ip), vehicle: saline with Tween-80) was 95 % of control, the T/C (dose: 256.0 mg/kg/injection, schedule: Q01DX001 (ip), vehicle: saline with Tween-80) was 97 % of control and the T/C (dose: 256.0 mg/kg/injection, schedule: Q01DX009 (oral), vehicle: saline with Tween-80) was 118 % of control. For the same compound, the T/C (dose: 256.0 mg/kg/injection, schedule: Q04DX003 (ip), vehicle: saline with Tween-80) was 96 % of control, the T/C (dose: 256.0 mg/kg/injection, schedule: Q08DX002 (ip), vehicle: saline with Tween-80) was 98 % of control and the T/C (dose: 300.0 mg/kg/injection, schedule: Q01DX009 (ip), vehicle: saline) was 90 % of control. For the same compound, the T/C (dose: 512.0 mg/kg/injection, schedule: Q01DX001 (ip), vehicle: saline with Tween-80) was 102 % of control and the T/C (dose: 512.0 mg/kg/injection, schedule: Q08DX002 (ip), vehicle: saline with Tween-80) was 106 % of control.

CCCCOB(OCCCC)C(C)C(C#N)C#N (stereo not given) was tested, and the T/C (dose: 100.0 mg/kg/injection, schedule: Q01DX009 (ip), vehicle: saline sonified) was 94 % of control, the T/C (dose: 100.0 mg/kg/injection, schedule: Q04DX003 (ip), vehicle: saline with Tween-80) was 110 % of control and the T/C (dose: 200.0 mg/kg/injection, schedule: Q01DX009 (ip), vehicle: saline sonified) was 92 % of control. For the same compound, the T/C (dose: 200.0 mg/kg/injection, schedule: Q04DX003 (ip), vehicle: saline with Tween-80) was 98 % of control, the T/C (dose: 400.0 mg/kg/injection, schedule: Q01DX009 (ip), vehicle: saline sonified) was 89 % of control and the T/C (dose: 400.0 mg/kg/injection, schedule: Q04DX003 (ip), vehicle: saline with Tween-80) was 93 % of control.

For c1cc2c(cc1CCCCCCCCCCc1ccc3c(c1)CCC3)CCC2, the T/C [1] was 97 % of control, the T/C [2] was 97 % of control and the T/C (dose: 400.0 mg/kg/injection, schedule: Q01DX001 (ip), vehicle: saline) was 89 % of control.

For O=[N+]([O-])CC(O)c1ccc2ccccc2n1 (stereo not given), the T/C (dose: 50.0 mg/kg/injection, schedule: Q01DX009 (ip), vehicle: water) was 100 % of control, the T/C [3] was 91 % of control and the T/C (dose: 100.0 mg/kg/injection, schedule: Q01DX009 (ip), vehicle: water) was 100 % of control. For the same compound, the T/C (dose: 100.0 mg/kg/injection, schedule: Q04DX003 (ip), vehicle: saline) was 93 % of control, the T/C (dose: 200.0 mg/kg/injection, schedule: Q01DX009 (ip), vehicle: saline) was 94 % of control and the T/C (dose: 200.0 mg/kg/injection, schedule: Q01DX009 (ip), vehicle: water) was 87 % of control. For the same compound, the T/C (dose: 200.0 mg/kg/injection, schedule: Q04DX003 (ip), vehicle: saline) was 90 % of control.

For CCCCCCCCN(CC)CC, the T/C (dose: 50.0 mg/kg/injection, schedule: Q01DX001 (ip), vehicle: saline) was 88 % of control, the T/C [1] was 90 % of control and the T/C [2] was 90 % of control.

In the case of CC(=O)Nc1ccc2c(c1)Cc1c(F)ccc(F)c1-2, the T/C (dose: 50.0 mg/kg/injection, schedule: Q01DX001 (ip), vehicle: carboxymethylcellulose (CMC)) is reported as 98 % of control, the T/C [4] is reported as 91 % of control and the T/C [5] is reported as 91 % of control. The T/C [6] was 98 % of control.

In the case of CC1CCCC(C)N1C(=O)Nc1cccc(F)c1 (stereo not given), the T/C [7] is reported as 99 % of control, the T/C [8] is reported as 101 % of control and the T/C [9] is reported as 94 % of control.

With O=C(Nc1ccccc1Cl)N(Cc1ccccc1)c1ccccc1 the T/C [7] was 99 % of control, the T/C (dose: 100.0 mg/kg/injection, schedule: Q04DX003 (ip), vehicle: Klucel (hydroxypropylcellulose) (HPC)) was 96 % of control and the T/C [8] was 91 % of control. The T/C (dose: 200.0 mg/kg/injection, schedule: Q04DX003 (ip), vehicle: Klucel (hydroxypropylcellulose) (HPC)) was 94 % of control, the T/C [9] was 94 % of control and the T/C (dose: 400.0 mg/kg/injection, schedule: Q04DX003 (ip), vehicle: Klucel (hydroxypropylcellulose) (HPC)) was 96 % of control.

With CS(=O)(=O)Nc1ccccc1-c1nc2ccccc2c(=O)o1 the T/C (dose: 50.0 mg/kg/injection, schedule: Q04DX002 (ip), vehicle: Klucel (hydroxypropylcellulose) (HPC)) was 98 % of control, the T/C (dose: 100.0 mg/kg/injection, schedule: Q04DX002 (ip), vehicle: Klucel (hydroxypropylcellulose) (HPC)) was 98 % of control and the T/C (dose: 200.0 mg/kg/injection, schedule: Q04DX002 (ip), vehicle: Klucel (hydroxypropylcellulose) (HPC)) was 98 % of control. For the same compound, the T/C (dose: 400.0 mg/kg/injection, schedule: Q04DX002 (ip), vehicle: Klucel (hydroxypropylcellulose) (HPC)) was 92 % of control.

With Cc1ccc(S(=O)(=O)N(C)c2ccc(N)cc2)cc1 the T/C [4] was 102 % of control, the T/C [5] was 96 % of control and the T/C [6] was 91 % of control.

For CCCCCCCCC(=O)N(CC)CC, the T/C (dose: 100.0 mg/kg/injection, schedule: Q04DX002 (ip), vehicle: saline) was 111 % of control, the T/C (dose: 200.0 mg/kg/injection, schedule: Q04DX002 (ip), vehicle: saline) was 103 % of control and the T/C (dose: 400.0 mg/kg/injection, schedule: Q04DX002 (ip), vehicle: saline) was 96 % of control.

In the case of Cc1cc(=O)[nH]c(O)c1C(=O)CC(=O)c1ccccc1, the T/C [1] is reported as 97 % of control and the T/C [2] is reported as 100 % of control.

With O=C(C[n+]1ccccc1)c1ccc(Br)cc1 the T/C (dose: 50.0 mg/kg/injection, schedule: Q01DX009 (ip), vehicle: saline) was 101 % of control, the T/C [1] was 101 % of control and the T/C [3] was 105 % of control.
